The record followed here is US10428027B2, “Sulfinylphenyl or sulfonimidoylphenyl benzazepines” (Hoffmann La-Roche Inc., priority 2015, dated 2019).

The target in assay [1] is T1, human TLR8 (Homo sapiens, UniProt Q9NR97).
T1 construct: host or cells: HEK-Blue human TLR8 cells (HEK293-derived; own knowledge: stably transfected with the human TLR8 gene)
T1 sequence (Q9NR97 27-1041): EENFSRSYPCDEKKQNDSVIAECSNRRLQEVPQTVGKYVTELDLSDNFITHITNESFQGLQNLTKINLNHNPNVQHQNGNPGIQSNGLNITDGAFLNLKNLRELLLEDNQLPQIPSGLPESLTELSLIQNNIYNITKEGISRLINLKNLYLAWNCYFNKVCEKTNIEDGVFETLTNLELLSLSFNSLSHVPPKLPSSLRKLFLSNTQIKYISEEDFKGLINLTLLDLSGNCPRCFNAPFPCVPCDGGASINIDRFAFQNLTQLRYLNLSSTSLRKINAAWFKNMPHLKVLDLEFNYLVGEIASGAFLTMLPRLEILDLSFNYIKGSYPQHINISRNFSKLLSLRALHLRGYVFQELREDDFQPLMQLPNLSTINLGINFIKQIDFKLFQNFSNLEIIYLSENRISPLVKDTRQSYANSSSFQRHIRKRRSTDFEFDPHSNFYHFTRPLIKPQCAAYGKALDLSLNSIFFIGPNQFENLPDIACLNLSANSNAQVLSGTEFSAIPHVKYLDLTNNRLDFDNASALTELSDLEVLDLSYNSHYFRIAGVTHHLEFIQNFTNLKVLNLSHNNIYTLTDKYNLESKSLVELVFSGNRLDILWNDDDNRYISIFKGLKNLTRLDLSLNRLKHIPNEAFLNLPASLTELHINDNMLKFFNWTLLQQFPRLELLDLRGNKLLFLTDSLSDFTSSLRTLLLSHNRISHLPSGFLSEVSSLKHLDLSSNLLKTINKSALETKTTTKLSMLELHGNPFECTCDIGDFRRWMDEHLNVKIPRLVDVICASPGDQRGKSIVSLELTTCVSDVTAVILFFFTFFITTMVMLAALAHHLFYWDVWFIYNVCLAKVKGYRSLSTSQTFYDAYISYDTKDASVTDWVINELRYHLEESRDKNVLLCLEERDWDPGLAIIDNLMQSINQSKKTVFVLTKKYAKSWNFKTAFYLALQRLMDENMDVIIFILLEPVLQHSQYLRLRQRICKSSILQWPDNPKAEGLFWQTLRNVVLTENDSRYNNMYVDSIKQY
The assay can be described thus: HEK-Blue human TLR8 cells, NF-κB SEAP reporter assay. The assay is classed as cell-based. The note with it: stimulation for 20 hours, SEAP reporter read at 640 nm. The text has this: (§1) For TLR8 and TLR7 activity testing, HEK-Blue human TLR8 or TLR7 cells (Invivogen, San Diego, Calif., USA) are used, respectively. These cells are designed for studying the stimulation of human TLR8 or TLR7 by monitoring the activation of NF-κB. A SEAP (secreted embryonic alkaline phosphatase) reporter gene is placed under the control of the IFN-b minimal promoter fused to five NF-κB and AP-1-binding sites. Therefore the reporter expression is regulated by the NF-κB promoter upon stimulation of human TLR8 or TLR7 for 20 hours. The cell culture supernatant SEAP reporter activity was determined using Quanti Blue kit (Invivogen, San Diego, Ca, USA) at a wavelength of 640 nm, a detection medium that turns purple/blue in the presence of alkaline phosphatase.
(In general: A reporter such as luciferase makes a cellular process visible.)

The target in assay [2] is T2, human TLR7 (Homo sapiens, UniProt Q9NYK1).
T2 construct: host or cells: HEK-Blue human TLR7 cells (HEK293-derived; own knowledge: stably transfected with the human TLR7 gene)
T2 sequence (Q9NYK1 27-1049): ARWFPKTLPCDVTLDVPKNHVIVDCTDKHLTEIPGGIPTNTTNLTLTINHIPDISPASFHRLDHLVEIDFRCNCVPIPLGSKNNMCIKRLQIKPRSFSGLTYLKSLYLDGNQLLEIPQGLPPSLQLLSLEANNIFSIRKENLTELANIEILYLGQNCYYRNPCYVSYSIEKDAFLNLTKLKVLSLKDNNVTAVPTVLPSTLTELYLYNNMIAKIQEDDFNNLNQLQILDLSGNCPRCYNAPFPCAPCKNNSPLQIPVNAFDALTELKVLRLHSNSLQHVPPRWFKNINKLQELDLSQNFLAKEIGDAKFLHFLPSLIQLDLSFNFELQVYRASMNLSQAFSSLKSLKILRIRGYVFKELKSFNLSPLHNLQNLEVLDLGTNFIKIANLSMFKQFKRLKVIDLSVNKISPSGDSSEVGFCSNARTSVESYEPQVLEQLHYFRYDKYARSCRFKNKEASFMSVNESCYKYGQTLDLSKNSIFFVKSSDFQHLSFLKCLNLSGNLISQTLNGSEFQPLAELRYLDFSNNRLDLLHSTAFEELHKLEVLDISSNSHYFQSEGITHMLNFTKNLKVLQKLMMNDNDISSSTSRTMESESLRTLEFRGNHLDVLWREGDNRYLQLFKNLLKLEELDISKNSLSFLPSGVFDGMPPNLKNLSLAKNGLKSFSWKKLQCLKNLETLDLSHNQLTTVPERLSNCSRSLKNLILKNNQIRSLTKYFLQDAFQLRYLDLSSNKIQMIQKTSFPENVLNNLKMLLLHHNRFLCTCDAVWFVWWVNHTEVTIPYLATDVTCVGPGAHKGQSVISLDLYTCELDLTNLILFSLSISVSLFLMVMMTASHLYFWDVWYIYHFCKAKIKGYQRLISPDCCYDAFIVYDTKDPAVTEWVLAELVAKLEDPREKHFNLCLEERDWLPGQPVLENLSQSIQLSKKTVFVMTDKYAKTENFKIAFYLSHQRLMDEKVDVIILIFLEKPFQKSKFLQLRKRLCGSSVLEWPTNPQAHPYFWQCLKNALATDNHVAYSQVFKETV
The assay can be described thus: HEK-Blue human TLR7 cells, NF-κB SEAP reporter assay. The note with it: stimulation for 20 hours, SEAP reporter read at 640 nm. The assay is classed as cell-based.
Excerpt: as §1

By EC50 is commonly meant the concentration that produces a half-maximal response. Take `CCCN(CCC)C(=O)C1=Cc2ccc(-c3ccc(S(=N)(=O)CC)cc3)cc2N=C(N)C1` (stereo not shown) [Example 9, 2-Amino-8-[4-(ethylsulfonimidoyl)phenyl]-N,N-dipropyl-3H-1-benzazepine-4-carboxamide]: the EC50 in assay [1] is 25 nM; in assay [2], 32000 nM.
Taken in the same sequence, the figures for `CCCN(CCC)C(=O)C1=Cc2ccc(-c3cccc(S(C)(=O)=NCCOCCO)c3)cc2N=C(N)C1` (stereo not shown) [Example 3, 2-Amino-8-[3-[N-[2-(2-hydroxyethoxy)ethyl]-S-methyl-sulfonimidoyl]phenyl]-N,N-dipropyl-3H-1-benzazepine-4-carboxamide] were 11 nM and 55000 nM.
For the compound `CCCN(CCC)C(=O)C1=Cc2ccc(-c3ccc([S+](C)[O-])cc3)cc2N=C(N)C1` (stereo not shown) [Example 1, 2-Amino-8-(4-methylsulfinylphenyl)-N,N-dipropyl-3H-1-benzazepine-4-carboxamide], the EC50 in assay [1] is 26 nM; in assay [2], 19000 nM.
Taken in the same sequence, the figures for `CCCN(CCC)C(=O)C1=Cc2ccc(-c3cncc([S+](C)[O-])c3)cc2N=C(N)C1` (stereo not shown) [Example 4, 2-Amino-8-(5-methylsulfinyl-3-pyridyl)-N,N-dipropyl-3H-1-benzazepine-4-carboxamide] were 8 nM and 2400 nM.
For the compound `CCCN(CCC)C(=O)C1=Cc2ccc(-c3cccc(S(C)(=N)=O)c3)cc2N=C(N)C1` (stereo not shown) [Example 7, 22-Amino-8-[3-(methylsulfonimidoyl)phenyl]-N,N-dipropyl-3H-1-benzazepine-4-carboxamide], the values for the EC50 in assay [1] and in assay [2] were 13 nM and 15400 nM, respectively.
On to `CCCN(CCC)C(=O)C1=Cc2ccc(-c3cccc(S(=N)(=O)CC)c3)cc2N=C(N)C1` (stereo not shown) [Example 11, 2-Amino-8-[3-(ethylsulfonimidoyl)phenyl]-N,N-dipropyl-3H-1-benzazepine-4-carboxamide], for which the EC50 in assay [1] came to 15 nM; in assay [2] it was 39000 nM.
For `CCCN(CCC)C(=O)C1=Cc2ccc(-c3cccc([S+]([O-])CC)c3)cc2N=C(N)C1` (stereo not shown) [Example 10, 2-Amino-8-(3-ethylsulfinylphenyl)-N,N-dipropyl-3H-1-benzazepine-4-carboxamide], in that order: 8 nM and 16000 nM.
Taken in the same sequence, the figures for `CCCN(CCC)C(=O)C1=Cc2ccc(-c3cncc(S(C)(=N)=O)c3)cc2N=C(N)C1` (stereo not shown) [Example 6, 2-Amino-8-[5-(methylsulfonimidoyl)-3-pyridyl]-N,N-dipropyl-3H-1-benzazepine-4-carboxamide] were 28 nM and 14800 nM.
For `CCCN(CCC)C(=O)C1=Cc2ccc(-c3ccc([S+]([O-])CC)cc3)cc2N=C(N)C1` (stereo not shown) [Example 8, 2-Amino-8-(4-ethylsulfinylphenyl)-N,N-dipropyl-3H-1-benzazepine-4-carboxamide], in that order: 21 nM and 23000 nM.
As to `CCCN(CCC)C(=O)C1=Cc2ccc(-c3cccc([S+](C)[O-])c3)cc2N=C(N)C1` (stereo not shown) [Example 5, 2-Amino-8-(3-methylsulfinylphenyl)-N,N-dipropyl-3H-1-benzazepine-4-carboxamide], the EC50 is 4 nM in assay [1] and 12100 nM in assay [2].
Taken in the same sequence, the figures for `CCCN(CCC)C(=O)C1=Cc2ccc(-c3ccc(S(C)(=N)=O)cc3)cc2N=C(N)C1` (stereo not shown) [Example 2, 2-Amino-8-[4-(methylsulfonimidoyl)phenyl]-N,N-dipropyl-3H-1-benzazepine-4-carboxamide] were 25 nM and 25000 nM.
